Assay results reported in US20220133957A1, “Sclerostin Inhibitors That Promote Bone Morphogenetic Protein Expression” (Emory University, priority 2019, published 2022).

T1: sclerostin and LRP5 interaction (Homo sapiens, UniProt Q9BQB4)
T1 sequence (Q9BQB4 24-213): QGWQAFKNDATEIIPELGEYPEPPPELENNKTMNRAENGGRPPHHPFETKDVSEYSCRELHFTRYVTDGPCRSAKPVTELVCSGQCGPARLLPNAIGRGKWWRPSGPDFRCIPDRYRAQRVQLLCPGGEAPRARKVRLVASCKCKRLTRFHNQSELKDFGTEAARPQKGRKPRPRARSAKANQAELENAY


Tests used:
[1] = tested on: rabbit posterolateral spine fusion; test: rabbit model of posterolateral lumbar arthrodesis (spinal fusion); assay type: in vivo; settings: for spinal fusion rates compared to controls: 300 mM; for spinal fusion rates compared to controls / spines successfully fused: 6 weeks; for spines successfully fused: 500 mM as standalone drug on plain collagen sponge without ICBG; for posterolateral spine fusion rate: 500 mM in combination with autologous iliac crest bone graft (ICBG), 6 weeks after arthrodesis
Method: Coronal μCT reconstructions of rabbit spines 6 weeks following posterolateral spine arthrodesis are shown.
C07 and VA1 were assessed for their ability to enhance spinal fusion rates in vivo using a validated rabbit model of posterolateral lumbar arthrodesis. Both were tested as standalone osteoinductive drugs, as well as in combination with autologous ICBG, using two separate doses (300 and 500 mM). All rabbits were euthanized six weeks following arthrodesis surgery and the spine fusion masses were assessed by both plain radiography and μCT. Successful fusion, defined as continuous bridging bone between the TPs, was assessed by two spine surgeons.

[2] = tested on: AXIN2, Wnt1 and SOST mRNA; test: BMP-2-induced marker gene expression in Wnt pathway (mRNA levels) in MC3T3 cells; assay type: cell-based; settings: 10 uM compound, BMP-2 35 ng/ml, MC3T3 cells treated for 48 hrs
Sprague-Dawley rats = test: in vivo subcutaneous ectopic mineralization model (collagen sponge implant); design: species or system rat; settings: 4 weeks; for dose-response of ectopic mineralization: 10, 25, 50, 75 and 100 mM on collagen sponge; for de novo ectopic mineralization: standalone agent on plain collagen sponge, 0-100 mM, subcutaneous on chest
Method: Compound was delivered in 100 uL at indicated concentration for each collagen disc in DMSO solvent before subcutaneous implantation.
Sclerostin inhibitors were tested in a challenging in vivo subcutaneous ectopic mineralization model. Other than the osteoinductive BMPs, few if any proteins or small molecules are capable of inducing de novo ectopic mineralization in this rat model. Sclerostin inhibitors were loaded individually as standalone agents onto a plain collagen sponge (DSM) at 0, 10, 25, 50, 75, and 100 mM and then surgically implanted subcutaneously on the chest of 6-week-old male Sprague-Dawley rats for 4 weeks. A positive control of 10 μg of recombinant BMP-2 was also tested.

[3] = biological target: T1, sclerostin and LRP5 interaction; test: in vitro binding assay with purified recombinant sclerostin and LRP5 proteins (125-Iodine-labeled sclerostin, biotin-labeled LRP5 pull-down); settings: 0.1 ug biotin-labeled LRP5, 20,000 cpm 125-Iodine-labeled sclerostin, 30 min at room temperature
Method: (§1) To ensure that sclerostin was in fact being expressed in cell lines, we tested C2C12, MSC and MC3T3 cell lines. Western blots were performed using anti-sclerostin mAbs both with and without BMP-2 treatment. […] Sclerostin and LRP5 was labeled with 125-Iodine and biotin, respectively. Constant amounts of biotin-labeled LRP5 (0.1 ug) and 125-Iodine-labeled sclerostin (20,000 cpm) were incubated with or without varying concentrations of unlabeled-sclerostin+/−various concentrations of compounds for 30 min at room temperature in a 100 uL assay buffer. Biotin-labeled LRP5 was pulled down with a 20 uL slurry of neutravidin-agarose beads. The counts associated with pellets were counted in a Beckman 4000 Gamma counter. Unlabeled sclerostin competed off about 90% of labeled-sclerostin.

[4] = biological target: purified recombinant LRP5; test: radioligand competition pull-down: 125I-sclerostin and biotin-LRP5, neutravidin-agarose beads, gamma counting; competitor unlabeled sclerostin
Sclerostin protein = test: Western blots using anti-sclerostin mAbs with and without BMP-2 treatment; assay type: cell-based; settings: C2C12, MSC and MC3T3 cell lines
Method: as §1

Molecule	spinal fusion rates compared to controls [1]	spines successfully fused [1] [%]	posterolateral spine fusion rate [1] [%]	BMP-induced mRNA levels of AXIN2, Wnt1 and SOST compared to BMP-2 alone control [2]	dose-response of ectopic mineralization (Sprague-Dawley rats)	de novo ectopic mineralization (Sprague-Dawley rats)	further results
N#Cc1ccc(NCCNc2ncccn2)nc1 [Compound C07, 6-((2-(pyrimidin-2-ylamino)ethyl)amino)nicotinonitrile]	Neither VA1 nor C07 at 300 mM showed any increase	33	85	elevation	clearer dose-response	significant de novo ectopic mineralization	
CCCC(CCC)C(=O)O [VA1, valproic acid]	Neither VA1 nor C07 at 300 mM showed any increase	17	80	elevation	lack of a clear dose-response	significant de novo ectopic mineralization	
Unlabeled sclerostin: purified recombinant sclerostin protein, unlabeled competitor in the LRP5 binding assay							labeled-sclerostin competed off [3]: about 90%
purified recombinant sclerostin (ligand)							percent of labeled sclerostin competed off [4]: 90%
BMP2: bone morphogenetic protein 2, growth factor used to treat cells (protein, listed as Homo sapiens) MVAGTRCLLALLLPQVLLGGAAGLVPELGRRKFAAASSGRPSSQPSDEVLSEFELRLLSMFGLKQRPTPSRDAVVPPYMLDLYRRHSGQPGSPAPDHRLERAASRANTVRSFHHEESLEELPETSGKTTRRFFFNLSSIPTEEFITSAELQVFREQMQDALGNNSSFHHRINIYEIIKPATANSKFPVTRLLDTRLVNQNASRWESFDVTPAVMRWTAQGHANHGFVVEVAHLEEKQGVSKRHVRISRSLHQDEHSWSQIRPLLVTFGHDGKGHPLHKREKRQAKHKQRKRLKSSCKRHPLYVDFSDVGWNDWIVAPPGYHAFYCHGECPFPLADHLNSTNHAIVQTLVNSVNSKIPKACCVPTELSAISMLYLDENEKVVLKNYQDMVVEGCGCR							Sclerostin protein levels (Sclerostin protein): increased protein levels
